Reference: ChEMBL document CHEMBL3621115, “Discovery of 6-phenylimidazo[2,1-b]thiazole derivatives as a new type of FLT3 inhibitors” (Bioorg Med Chem Lett, 2015)

Key:
[1] = target: Hepatocyte growth factor receptor (Homo sapiens, UniProt P08581); experiment: Inhibition of human recombinant Met
[2] = target: Serine/threonine-protein kinase pim-1 (Homo sapiens, UniProt P11309); experiment: Inhibition of human recombinant Pim1
[3] = target: Fibroblast growth factor receptor 2 (Homo sapiens, UniProt P21802); experiment: Inhibition of human recombinant FGFR2
A549 = experiment: Cytotoxicity against human A549 cells assessed as cell viability after 72 hrs by MTT assay; type: functional, cell-based; details: A549, 72 h
[4] = target: Tyrosine-protein kinase ABL2 (Homo sapiens, UniProt P42684); experiment: Inhibition of human recombinant Arg
[5] = target: T1, Receptor-type tyrosine-protein kinase FLT3 (Homo sapiens, UniProt P36888); experiment: Inhibition of human recombinant Flt3
T1 sequence (P36888 whole entry): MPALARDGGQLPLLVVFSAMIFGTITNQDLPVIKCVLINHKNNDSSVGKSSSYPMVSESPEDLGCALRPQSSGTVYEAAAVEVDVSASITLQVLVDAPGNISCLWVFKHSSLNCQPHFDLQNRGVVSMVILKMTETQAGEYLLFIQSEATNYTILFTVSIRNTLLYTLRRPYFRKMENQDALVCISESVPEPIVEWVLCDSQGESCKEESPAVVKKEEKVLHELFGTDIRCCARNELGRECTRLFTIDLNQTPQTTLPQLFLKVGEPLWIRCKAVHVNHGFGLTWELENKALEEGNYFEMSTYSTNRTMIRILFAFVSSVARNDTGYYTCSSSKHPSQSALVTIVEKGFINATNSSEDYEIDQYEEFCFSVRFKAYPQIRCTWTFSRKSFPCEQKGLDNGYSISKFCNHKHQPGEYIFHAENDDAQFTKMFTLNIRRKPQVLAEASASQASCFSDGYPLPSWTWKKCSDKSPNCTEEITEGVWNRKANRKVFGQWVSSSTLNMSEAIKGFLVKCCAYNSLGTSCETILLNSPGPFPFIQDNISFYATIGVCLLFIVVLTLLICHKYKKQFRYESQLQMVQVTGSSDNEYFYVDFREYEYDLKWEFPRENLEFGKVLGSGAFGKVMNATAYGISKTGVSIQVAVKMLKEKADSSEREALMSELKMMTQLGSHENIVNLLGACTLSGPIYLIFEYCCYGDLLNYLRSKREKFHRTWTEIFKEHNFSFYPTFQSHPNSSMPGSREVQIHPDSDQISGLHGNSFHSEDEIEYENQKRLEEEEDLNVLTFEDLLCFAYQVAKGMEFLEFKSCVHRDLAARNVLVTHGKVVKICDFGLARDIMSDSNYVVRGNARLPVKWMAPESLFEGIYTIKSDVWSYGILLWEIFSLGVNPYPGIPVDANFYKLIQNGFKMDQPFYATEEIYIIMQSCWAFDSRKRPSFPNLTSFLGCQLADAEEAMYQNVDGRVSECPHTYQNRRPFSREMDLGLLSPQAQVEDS

HepG2 = experiment: Cytotoxicity against human HepG2 cells assessed as cell viability after 72 hrs by MTT assay; type: functional, cell-based; details: HepG2, 72 h
BT-474 = experiment: Cytotoxicity against human BT474 cells assessed as cell viability after 72 hrs by MTT assay; type: functional, cell-based; details: BT-474, 72 h
[6] = target: Glycogen synthase kinase-3 beta (Homo sapiens, UniProt P49841); experiment: Inhibition of human recombinant GSK3beta
MCF7 = experiment: Cytotoxicity against human MCF7 cells assessed as cell viability after 72 hrs by MTT assay; type: functional, cell-based; details: MCF7, 72 h
[7] = target: Serine/threonine-protein kinase/endoribonuclease IRE1 (Homo sapiens, UniProt O75460); experiment: Inhibition of human recombinant IRE1
SH-SY5Y = experiment: Cytotoxicity against human SH-SY5Y cells assessed as cell viability after 72 hrs by MTT assay; type: functional, cell-based
[8] = target: Proto-oncogene tyrosine-protein kinase receptor Ret (Homo sapiens, UniProt P07949); experiment: Inhibition of human recombinant Ret
[9] = target: Tyrosine-protein kinase SYK (Homo sapiens, UniProt P43405); experiment: Inhibition of human recombinant Syk
[10] = target: Serine/threonine-protein kinase PAK 2 (Homo sapiens, UniProt Q13177); experiment: Inhibition of human recombinant PAK2
[11] = target: Vascular endothelial growth factor receptor 3 (Homo sapiens, UniProt P35916); experiment: Inhibition of human recombinant Flt4
[12] = target: Ribosomal protein S6 kinase alpha-1 (Homo sapiens, UniProt Q15418); experiment: Inhibition of human recombinant Rsk1
[13] = target: Cytoplasmic tyrosine-protein kinase BMX (Homo sapiens, UniProt P51813); experiment: Inhibition of human recombinant Bmx
Sequence of Cytoplasmic tyrosine-protein kinase BMX (P51813 whole entry): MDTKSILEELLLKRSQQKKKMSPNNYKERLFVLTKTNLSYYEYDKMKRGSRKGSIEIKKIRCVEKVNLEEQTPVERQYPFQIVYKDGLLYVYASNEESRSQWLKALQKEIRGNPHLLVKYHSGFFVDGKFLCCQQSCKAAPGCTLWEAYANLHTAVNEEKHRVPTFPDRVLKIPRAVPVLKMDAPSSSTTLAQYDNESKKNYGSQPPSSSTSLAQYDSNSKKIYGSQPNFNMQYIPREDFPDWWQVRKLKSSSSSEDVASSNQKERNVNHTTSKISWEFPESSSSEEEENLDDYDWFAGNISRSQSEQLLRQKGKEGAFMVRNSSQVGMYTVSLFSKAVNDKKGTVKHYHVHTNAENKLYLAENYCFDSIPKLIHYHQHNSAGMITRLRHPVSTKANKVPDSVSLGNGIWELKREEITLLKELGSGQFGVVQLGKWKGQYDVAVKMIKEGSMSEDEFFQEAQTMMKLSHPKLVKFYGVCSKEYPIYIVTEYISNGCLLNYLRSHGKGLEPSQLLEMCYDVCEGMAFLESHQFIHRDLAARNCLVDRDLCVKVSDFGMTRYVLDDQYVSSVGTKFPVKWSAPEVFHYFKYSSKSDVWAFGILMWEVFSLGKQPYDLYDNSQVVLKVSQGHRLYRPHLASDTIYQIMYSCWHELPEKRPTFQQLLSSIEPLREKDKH

Ephrin type-B receptor 2 = Ephrin type-B receptor 2 (Homo sapiens, UniProt P29323); experiment: Inhibition of human recombinant EphB2
Sequence of Ephrin type-B receptor 2 (P29323 whole entry): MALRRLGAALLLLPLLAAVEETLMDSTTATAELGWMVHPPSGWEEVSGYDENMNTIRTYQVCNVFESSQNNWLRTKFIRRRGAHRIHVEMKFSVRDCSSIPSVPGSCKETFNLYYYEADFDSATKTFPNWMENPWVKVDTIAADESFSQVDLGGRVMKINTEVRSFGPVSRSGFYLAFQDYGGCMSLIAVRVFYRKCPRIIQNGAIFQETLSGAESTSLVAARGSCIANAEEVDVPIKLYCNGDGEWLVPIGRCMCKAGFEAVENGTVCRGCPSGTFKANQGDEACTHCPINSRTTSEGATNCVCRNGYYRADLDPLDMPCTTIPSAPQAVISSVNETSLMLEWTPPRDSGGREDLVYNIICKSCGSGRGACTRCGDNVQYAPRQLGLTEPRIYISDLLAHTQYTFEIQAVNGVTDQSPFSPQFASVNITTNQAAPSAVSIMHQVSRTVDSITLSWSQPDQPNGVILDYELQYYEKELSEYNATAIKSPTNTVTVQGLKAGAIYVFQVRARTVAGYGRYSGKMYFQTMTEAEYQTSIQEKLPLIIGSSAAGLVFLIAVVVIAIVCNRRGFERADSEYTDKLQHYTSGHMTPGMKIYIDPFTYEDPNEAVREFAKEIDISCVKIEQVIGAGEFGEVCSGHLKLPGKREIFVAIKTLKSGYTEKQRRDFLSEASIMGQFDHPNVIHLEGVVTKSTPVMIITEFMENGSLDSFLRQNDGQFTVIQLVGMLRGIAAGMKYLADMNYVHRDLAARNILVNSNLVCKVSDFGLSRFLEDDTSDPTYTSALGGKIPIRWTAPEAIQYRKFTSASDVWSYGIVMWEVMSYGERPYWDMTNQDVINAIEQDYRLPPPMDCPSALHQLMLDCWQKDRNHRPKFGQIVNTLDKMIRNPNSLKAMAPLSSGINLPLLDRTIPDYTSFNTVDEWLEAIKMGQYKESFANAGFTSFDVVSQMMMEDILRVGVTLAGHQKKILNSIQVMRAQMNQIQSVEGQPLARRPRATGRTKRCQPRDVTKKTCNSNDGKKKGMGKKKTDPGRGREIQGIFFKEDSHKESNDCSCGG

[14] = Cytotoxicity against human OCI-LY19 cells assessed as cell viability after 72 hrs by MTT assay; type: functional, cell-based; details: OCI-LY19, 72 h
[15] = target: Receptor tyrosine-protein kinase erbB-4 (Homo sapiens, UniProt Q15303); experiment: Inhibition of human recombinant ErbB4
A-375 = experiment: Cytotoxicity against human A375 cells assessed as cell viability after 72 hrs by MTT assay; type: functional, cell-based; details: A-375, 72 h
Myotonin-protein kinase = Myotonin-protein kinase (Homo sapiens, UniProt Q09013); experiment: Inhibition of human recombinant DMPK
MDA-MB-231 = experiment: Cytotoxicity against human MDA-MB-231 cells assessed as cell viability after 72 hrs by MTT assay; type: functional, cell-based; details: MDA-MB-231, 72 h
[16] = target: Tyrosine-protein kinase Fes/Fps (Homo sapiens, UniProt P07332); experiment: Inhibition of human recombinant Fes
[17] = target: Serine/threonine-protein kinase PAK 4 (Homo sapiens, UniProt O96013); experiment: Inhibition of human recombinant PAK4
[18] = target: Tyrosine-protein kinase Fyn (Homo sapiens, UniProt P06241); experiment: Inhibition of human recombinant Fyn
Sequence of Tyrosine-protein kinase Fyn (P06241 whole entry): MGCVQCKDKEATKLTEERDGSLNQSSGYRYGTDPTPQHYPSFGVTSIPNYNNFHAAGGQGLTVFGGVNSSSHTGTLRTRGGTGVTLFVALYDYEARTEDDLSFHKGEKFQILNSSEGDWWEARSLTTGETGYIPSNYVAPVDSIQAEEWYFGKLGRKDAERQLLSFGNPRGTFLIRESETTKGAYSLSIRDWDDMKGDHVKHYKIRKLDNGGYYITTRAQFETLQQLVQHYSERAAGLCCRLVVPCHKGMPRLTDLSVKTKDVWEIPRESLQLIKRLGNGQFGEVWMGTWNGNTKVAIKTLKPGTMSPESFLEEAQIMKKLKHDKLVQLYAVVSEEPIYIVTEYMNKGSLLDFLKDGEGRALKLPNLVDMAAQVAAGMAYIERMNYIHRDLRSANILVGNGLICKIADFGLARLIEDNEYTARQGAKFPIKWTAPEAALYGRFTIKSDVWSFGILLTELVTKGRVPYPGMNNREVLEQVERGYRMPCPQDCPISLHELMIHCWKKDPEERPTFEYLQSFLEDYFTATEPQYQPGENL

[19] = target: Serine/threonine-protein kinase PLK1 (Homo sapiens, UniProt P53350); experiment: Inhibition of human recombinant Plk1
Jurkat = experiment: Cytotoxicity against human Jurkat cells assessed as cell viability after 72 hrs by MTT assay; type: functional, cell-based
[20] = target: 5'-AMP-activated protein kinase catalytic subunit alpha-1 (Homo sapiens, UniProt Q13131); experiment: Inhibition of human recombinant AMPKalpha1
[21] = target: Cyclin-dependent kinase 7 (Homo sapiens, UniProt P50613); experiment: Inhibition of human recombinant CDK7
SW480 = experiment: Cytotoxicity against human SW480 cells assessed as cell viability after 72 hrs by MTT assay; type: functional, cell-based; details: SW480, 72 h
[22] = target: Vascular endothelial growth factor receptor 2 (Homo sapiens, UniProt P35968); experiment: Inhibition of human recombinant KDR
Sequence of Vascular endothelial growth factor receptor 2 (P35968 whole entry): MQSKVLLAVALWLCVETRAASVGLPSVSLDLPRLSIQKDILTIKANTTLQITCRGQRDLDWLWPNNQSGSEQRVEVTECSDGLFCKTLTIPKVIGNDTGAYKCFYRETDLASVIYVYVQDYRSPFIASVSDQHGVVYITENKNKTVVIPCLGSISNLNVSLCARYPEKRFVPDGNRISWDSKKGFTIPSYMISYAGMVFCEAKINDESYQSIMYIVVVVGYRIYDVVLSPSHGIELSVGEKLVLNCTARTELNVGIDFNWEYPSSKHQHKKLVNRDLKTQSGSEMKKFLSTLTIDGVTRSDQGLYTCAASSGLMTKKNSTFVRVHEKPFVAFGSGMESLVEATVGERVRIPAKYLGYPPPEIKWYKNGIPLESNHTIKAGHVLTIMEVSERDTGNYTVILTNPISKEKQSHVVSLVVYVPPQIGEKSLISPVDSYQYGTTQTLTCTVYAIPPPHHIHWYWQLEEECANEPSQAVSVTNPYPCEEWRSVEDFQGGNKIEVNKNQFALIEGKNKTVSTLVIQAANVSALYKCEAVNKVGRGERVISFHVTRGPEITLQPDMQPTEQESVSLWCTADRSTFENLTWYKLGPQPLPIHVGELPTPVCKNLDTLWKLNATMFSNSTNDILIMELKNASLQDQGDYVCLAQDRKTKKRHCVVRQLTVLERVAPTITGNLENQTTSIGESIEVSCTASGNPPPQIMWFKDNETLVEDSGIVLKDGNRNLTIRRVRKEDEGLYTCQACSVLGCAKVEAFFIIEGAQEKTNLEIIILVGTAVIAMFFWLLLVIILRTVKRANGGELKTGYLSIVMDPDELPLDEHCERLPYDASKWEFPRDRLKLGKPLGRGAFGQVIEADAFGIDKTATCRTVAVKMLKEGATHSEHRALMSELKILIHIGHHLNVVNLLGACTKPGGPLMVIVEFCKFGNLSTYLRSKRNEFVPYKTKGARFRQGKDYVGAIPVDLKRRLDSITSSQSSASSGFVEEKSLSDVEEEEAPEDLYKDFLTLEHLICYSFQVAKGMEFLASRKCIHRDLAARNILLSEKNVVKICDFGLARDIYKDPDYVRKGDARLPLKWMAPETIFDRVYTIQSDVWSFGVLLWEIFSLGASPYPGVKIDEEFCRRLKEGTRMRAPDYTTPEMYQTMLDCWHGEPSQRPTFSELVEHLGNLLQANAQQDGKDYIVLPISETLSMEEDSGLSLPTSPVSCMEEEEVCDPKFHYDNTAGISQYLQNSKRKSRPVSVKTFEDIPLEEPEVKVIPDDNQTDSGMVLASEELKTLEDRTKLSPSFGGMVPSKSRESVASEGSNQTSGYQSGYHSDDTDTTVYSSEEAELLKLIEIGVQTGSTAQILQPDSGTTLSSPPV

[23] = target: Serine/threonine-protein kinase D2 (Homo sapiens, UniProt Q9BZL6); experiment: Inhibition of human recombinant PKD2
[24] = target: Vascular endothelial growth factor receptor 1 (Homo sapiens, UniProt P17948); experiment: Inhibition of human recombinant Flt1
Sequence of Vascular endothelial growth factor receptor 1 (P17948 whole entry): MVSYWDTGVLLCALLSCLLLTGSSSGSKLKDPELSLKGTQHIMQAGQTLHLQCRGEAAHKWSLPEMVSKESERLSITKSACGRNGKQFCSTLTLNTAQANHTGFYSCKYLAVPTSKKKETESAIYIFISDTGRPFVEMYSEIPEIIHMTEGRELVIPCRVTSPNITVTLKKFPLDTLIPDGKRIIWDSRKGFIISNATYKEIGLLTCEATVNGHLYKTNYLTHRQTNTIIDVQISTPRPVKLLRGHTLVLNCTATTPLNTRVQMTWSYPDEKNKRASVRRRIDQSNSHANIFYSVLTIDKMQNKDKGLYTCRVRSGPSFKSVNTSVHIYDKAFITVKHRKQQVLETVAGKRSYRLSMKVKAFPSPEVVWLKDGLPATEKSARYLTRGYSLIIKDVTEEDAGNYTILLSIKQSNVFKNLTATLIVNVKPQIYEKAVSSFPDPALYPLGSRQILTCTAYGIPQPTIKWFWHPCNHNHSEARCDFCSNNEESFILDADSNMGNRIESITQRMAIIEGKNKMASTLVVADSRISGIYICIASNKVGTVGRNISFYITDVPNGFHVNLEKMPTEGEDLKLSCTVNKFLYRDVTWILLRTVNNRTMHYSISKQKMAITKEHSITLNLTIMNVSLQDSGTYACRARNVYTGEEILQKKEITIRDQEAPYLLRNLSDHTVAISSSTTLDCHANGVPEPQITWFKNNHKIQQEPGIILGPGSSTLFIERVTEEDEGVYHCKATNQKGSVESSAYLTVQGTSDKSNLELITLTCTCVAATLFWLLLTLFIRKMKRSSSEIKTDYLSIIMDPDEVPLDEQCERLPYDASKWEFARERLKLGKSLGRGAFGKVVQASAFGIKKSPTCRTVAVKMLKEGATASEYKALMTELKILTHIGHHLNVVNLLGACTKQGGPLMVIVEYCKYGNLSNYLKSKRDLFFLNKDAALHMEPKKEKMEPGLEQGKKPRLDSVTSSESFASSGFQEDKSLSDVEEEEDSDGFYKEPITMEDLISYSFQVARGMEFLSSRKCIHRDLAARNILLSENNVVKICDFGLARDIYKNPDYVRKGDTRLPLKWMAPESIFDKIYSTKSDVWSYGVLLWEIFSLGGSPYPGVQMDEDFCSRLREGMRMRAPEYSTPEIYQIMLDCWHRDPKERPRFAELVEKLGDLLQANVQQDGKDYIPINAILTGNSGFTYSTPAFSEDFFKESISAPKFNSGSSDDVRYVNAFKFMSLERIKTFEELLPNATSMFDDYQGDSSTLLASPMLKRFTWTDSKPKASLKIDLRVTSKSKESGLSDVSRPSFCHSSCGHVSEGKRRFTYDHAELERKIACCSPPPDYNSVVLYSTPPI

[25] = target: Platelet-derived growth factor receptor alpha (Homo sapiens, UniProt P16234); experiment: Inhibition of human recombinant PDGFRalpha

Q: What does the source list for CN(C)CCCNC(=O)c1csc2nc(-c3ccc(NC(=O)Nc4cc(C(C)(C)C)on4)cc3)cn12?
A: IC50 [1]: > 10 µM; IC50 [2]: 4.04 µM; IC50 [3]: > 10 µM; IC50 (A549): 10 µM; IC50 [4]: > 10 µM; IC50 [5]: 0.022 µM; IC50 (HepG2): 10 µM; IC50 (BT-474): 10 µM; IC50 [6]: > 10 µM; IC50 (MCF7): > 10 µM; IC50 [7]: > 10 µM; IC50 (SH-SY5Y): 3.3 µM; IC50 [8]: 0.986 µM; IC50 [9]: > 10 µM; IC50 [10]: > 10 µM; IC50 [11]: 1.19 µM; IC50 [12]: > 10 µM; IC50 [13]: > 10 µM; IC50 (Ephrin type-B receptor 2): > 10 µM; IC50 [14]: 3.3 µM; IC50 [15]: > 10 µM; IC50 (A-375): 10 µM; IC50 (Myotonin-protein kinase): > 10 µM; IC50 (MDA-MB-231): 10 µM; IC50 [16]: > 10 µM; IC50 [17]: > 10 µM; IC50 [18]: > 10 µM; IC50 [19]: > 10 µM; IC50 (Jurkat): 10 µM; IC50 [20]: > 10 µM; IC50 [21]: > 10 µM; IC50 (SW480): 10 µM; IC50 [22]: 2.46 µM; IC50 [23]: > 10 µM; IC50 [24]: 2.83 µM; IC50 [25]: 0.37 µM
